Experimental data reported in patent US10167293B2, “[8-(phenylsulfonyl)-3,8-diazabicyclo[3.2.1]oct-3-yl](1H-1,2,3-triazol-4-yl)methanones” (BAYER PHARMA AKTIENGESELLSCHAFT, priority 2016, dated 2019).

These compounds were tested against recombinant human AKR1C3 (Homo sapiens (Human), UniProt P42330) (assay: AKR1C3-inhibitory activity assay (Coumberone to Coumberol fluorescence)). Settings: recombinant human AKR1C3, 15 min pre-incubation, 10 μM NADPH, 0.3 μM Coumberone.
Chain of recombinant human AKR1C3 (P42330 whole entry): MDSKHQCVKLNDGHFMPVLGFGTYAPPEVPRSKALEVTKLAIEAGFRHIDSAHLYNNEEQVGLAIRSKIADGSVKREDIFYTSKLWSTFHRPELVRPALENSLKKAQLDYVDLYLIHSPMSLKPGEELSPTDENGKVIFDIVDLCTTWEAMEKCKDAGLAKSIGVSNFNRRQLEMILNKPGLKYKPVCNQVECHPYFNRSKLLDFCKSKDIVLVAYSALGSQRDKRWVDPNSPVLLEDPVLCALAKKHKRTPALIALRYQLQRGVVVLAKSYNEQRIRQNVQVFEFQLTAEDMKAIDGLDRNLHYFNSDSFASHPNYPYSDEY
Assay type: biochemical
Method: The AKR1C3-inhibitory activity of the substances of the present invention was measured in the AKR1C3 assay described in the paragraphs below.
Essentially, the enzyme activity is measured by quantification of the generation of Coumberol from Coumberone (Halim et al. J. AM. CHEM. SOC. 2008, 130:14123-14128 and Yee et al. Proc. Natl. Acad. Sci. USA 2006, 103:13304-13309). In this test, the increase of the highly fluorescent Coumberol by NADPH—(nicotinamide adenine dinucleotide phosphate)-dependent reduction of the non-fluorescent Coumberone by AKR1C3 was determined.
The enzyme used was recombinant human AKR1C3 (Aldo-keto reductase family 1 member C3; GenBank Accession No. NM_003739). This was expressed in E. coli as GST (glutathione S transferase) fusion protein and purified by glutathione Sepharose affinity chromatography. The GST was removed by digestion with thrombin and subsequent size exclusion chromatography (Dufort, I., Rheault, P., Huang, X F., Soucy, P., and Luu-The, V., Endocrinology 140, 568-574 (1999)).
For the assay, 50 nl of a 100-fold concentrated solution of the test substance in DMSO were pipetted into a black low-volume 384-well microtiter plate (Greiner Bio-One, Frickenhausen, Germany), 2.5 μl of a solution of AKR1C3 in assay buffer [50 mM potassium phosphate buffer pH 7, 1 mM DTT, 0.0022% (w/v) Pluronic F-127, 0.01% BSA (w/v) and protease inhibitor cocktail (Complete, EDTA-free Protease Inhibitor Cocktail from Roche)] were added and the mixture was incubated for 15 min to allow pre-binding of the substances to the enzyme prior to the enzyme reaction. The enzyme reaction was then started by addition of 2.5 μl of a solution of NADPH (20 μM→final concentration in 5 μl of assay volume is 10 μM) and Coumberone (0.6 μM→final concentration in 5 μl of assay volume is 0.3 μM) in assay buffer, and the resulting mixture was incubated at 22° C. for the reaction time of typically 90 min. The concentration of the AKR1C3 and the reaction time was adapted to the respective activity of the enzyme preparation and adjusted such that the assay was carried out in the linear range. Typical AKR1C3 concentrations were in the region of 1 nM. The reaction was stopped by addition of 2.5 μl of a stop solution consisting of 3 μM EM-1404 as inhibitor (U.S. Pat. No. 6,541,463) in 50 mM HEPES pH7.5 (3 μM EM-1404→final concentration in 7.5 μl of assay volume is 1 μM). The fluorescence of the Coumberole was then measured at 520 nm (excitation at 380 nm) using a suitable measuring instrument (Pherastar from BMG Labtechnologies). The intensity of the fluorescence was used as a measure of the amount of Coumberole formed and thus of the enzyme activity of AKR1C3. The data were normalized (enzyme reaction without inhibitor=0% inhibition; all other assay components, but no enzyme=100% inhibition).
Compound `O=C(c1c[nH]nn1)N1CC2CCC(C1)N2S(=O)(=O)c1ccccc1C(F)(F)F` [Example 2, 1H-1,2,3-triazol-4-yl[8-{[2-(trifluoromethyl)phenyl]sulfonyl}-3,8-diazabicyclo[3.2.1]oct-3-yl]methanone] has an IC50 of 1 nM. For `O=C(c1cnn[nH]1)N1CC2CCC(C1)N2S(=O)(=O)c1ccccc1F` [Example 15, {8-[(2-fluorophenyl)sulfonyl]-3,8-diazabicyclo[3.2.1]oct-3-yl}(1H-1,2,3-triazol-5-yl)methanone], the IC50 was 1.5 nM. Work on `O=C(c1c[nH]nn1)N1CC2CCC(C1)N2S(=O)(=O)c1cccc(S(F)(F)(F)(F)F)c1` [Example 8, [8-{[3-(pentafluoro-lambda^6-sulfanyl)phenyl]sulfonyl}-3,8-diazabicyclo[3.2.1]oct-3-yl](1H-1,2,3-triazol-4-yl)methanone] yielded an IC50 of 1.3 nM. `N#Cc1c(Cl)cccc1S(=O)(=O)N1C2CCC1CN(C(=O)c1cnn[nH]1)C2` [Example 68, 2-chloro-6-{[3-(1H-1,2,3-triazol-5-ylcarbonyl)-3,8-diazabicyclo[3.2.1]oct-8-yl]sulfonyl}benzonitrile] was tested, and the IC50 was 1.3 nM. `O=C(c1cnn[nH]1)N1CC2CCC(C1)N2S(=O)(=O)c1ccc(C(F)(F)F)cc1` [Example 36, 1H-1,2,3-triazol-5-yl[8-{[4-(trifluoromethyl)phenyl]sulfonyl}-3,8-diazabicyclo[3.2.1]oct-3-yl]methanone] gave an IC50 of 3.3 nM. `O=C(c1cnn[nH]1)N1CC2CCC(C1)N2S(=O)(=O)c1cccc(F)c1` [Example 4, {8-[(3-fluorophenyl)sulfonyl]-3,8-diazabicyclo[3.2.1]oct-3-yl}(1H-1,2,3-triazol-5-yl)methanone] showed an IC50 of 1.2 nM. For `COc1ccc(OC)c(S(=O)(=O)N2C3CCC2CN(C(=O)c2cnn[nH]2)C3)c1` [Example 47, {8-[(2,5-dimethoxyphenyl)sulfonyl]-3,8-diazabicyclo[3.2.1]oct-3-yl}(1H-1,2,3-triazol-5-yl)methanone], the IC50 was 29.8 nM. `Cc1c(Cl)cccc1S(=O)(=O)N1C2CCC1CN(C(=O)c1cnn[nH]1)C2` [Example 26, {8-[(3-chloro-2-methylphenyl)sulfonyl]-3,8-diazabicyclo[3.2.1]oct-3-yl}(1H-1,2,3-triazol-5-yl)methanone] was tested, and the IC50 was 1.1 nM. `O=C(c1cnn[nH]1)N1CC2CCC(C1)N2S(=O)(=O)c1c(Cl)cc(Cl)cc1Cl` [Example 56, 1H-1,2,3-triazol-5-yl{8-[(2,4,6-trichlorophenyl)sulfonyl]-3,8-diazabicyclo[3.2.1]oct-3-yl}methanone] showed an IC50 of 1.4 nM. `O=C(c1cnn[nH]1)N1CC2CCC(C1)N2S(=O)(=O)c1ccc(O)cc1` [Example 37, {8-[(4-hydroxyphenyl)sulfonyl]-3,8-diazabicyclo[3.2.1]oct-3-yl}(1H-1,2,3-triazol-5-yl)methanone] was tested, and the IC50 was 2.8 nM. `Cc1cc(C)c(S(=O)(=O)N2C3CCC2CN(C(=O)c2cnn[nH]2)C3)c(C)c1` [Example 45, 1H-1,2,3-triazol-5-yl{8-[(2,4,6-trimethylphenyl)sulfonyl]-3,8-diazabicyclo[3.2.1]oct-3-yl}methanone] showed an IC50 of 1.4 nM. In the case of `COc1cc(F)ccc1S(=O)(=O)N1C2CCC1CN(C(=O)c1cnn[nH]1)C2` [Example 72, {8-[(4-fluoro-2-methoxyphenyl)sulfonyl]-3,8-diazabicyclo[3.2.1]oct-3-yl}(1H-1,2,3-triazol-5-yl)methanone], the IC50 is reported as 1.1 nM. With `O=C(c1cnn[nH]1)N1CC2CCC(C1)N2S(=O)(=O)c1cccc([N+](=O)[O-])c1` [Example 44, {8-[(3-nitrophenyl)sulfonyl]-3,8-diazabicyclo[3.2.1]oct-3-yl}(1H-1,2,3-triazol-5-yl)methanone] the IC50 was 1.9 nM. With `Cc1cccc(Cl)c1S(=O)(=O)N1C2CCC1CN(C(=O)c1cnn[nH]1)C2` [Example 51, {8-[(2-chloro-6-methylphenyl)sulfonyl]-3,8-diazabicyclo[3.2.1]oct-3-yl}(1H-1,2,3-triazol-5-yl)methanone] the IC50 was 0.8 nM.
